Measured values from paper PMC6314830 (Science Advances, 2019).

Test system: mouse skin
Assay: Topical application to uninfected mouse skin
Format: in vivo
Details: repeated daily topical treatments of the skin

`CC[C@H](C)[C@H](N)C(=O)N[C@@H](CC(N)=O)C(=O)N[C@@H](CC(C)C)C(=O)N[C@@H](CCCCN)C(=O)N[C@@H](C)C(=O)N[C@@H](CC(C)C)C(=O)N[C@@H](C)C(=O)N[C@@H](C)C(=O)N[C@@H](CC(C)C)C(=O)N[C@@H](C)C(=O)N[C@@H](CCCCN)C(=O)N[C@@H](CCCCN)C(=O)N[C@H](C(=O)N[C@@H](CC(C)C)C(=O)O)[C@@H](C)CC` [Mastoparan] was tested, and the “Local or systemic adverse effects” value was “did not observe any local or systemic adverse effects”.
